pIC50: −log10 of the molar value. ≈ marks a conversion by molar mass, not a printed value. Read-outs that look alike come from different tables or passages of the source.

Here are results for 29 compounds from US6703397B2, “Pyrimidinyl methyl indole derivatives with antibacterial activity” (Basilea Pharmaceutica AG, priority 2000, dated 2004).

Assay [1] deals with Streptococcus pneumoniae 1/1. The experiment in a line: MIC against Streptococcus pneumoniae 1/1 (trimethoprim- and penicillin-resistant clinical isolate, serotype 6). The format is cell-based. Particulars: Streptococcus pneumoniae 1/1, trimethoprim- and penicillin-resistant, serotype 6; for MIC: read-out: Spn 1/1 MIC. The method, then: The following Tables 1 and 2 contain inhibitory concentrations determined in the above test for representative members of the class of compound defined by formula I. The following microorganisms were tested: […]
Col. 2: MIC Spn1/1; μg/ml (Streptococcus pneumoniae 1/1, Trimethoprim- and Penicillin-resistant, Serotype 6; clinical isolate, stored at −80° C.). Lit.: H. Locher et al., Can. J. Infect. Dis. 6: Suppl. C, p 469C.

Assay [2] concerns Streptococcus pneumoniae ATCC 49619. The experiment in a line: MIC against Streptococcus pneumoniae ATCC 49619 (trimethoprim- and penicillin-susceptible reference strain). Particulars: Streptococcus pneumoniae ATCC 49619, trimethoprim- and penicillin-susceptible; for MIC: ATCC49619, read-out: Spn 49619 MIC. The format is cell-based. The method, then: The following Tables 1 and 2 contain inhibitory concentrations determined in the above test for representative members of the class of compound defined by formula I. The following microorganisms were tested: Col. 1: […]

Assay [3] concerns the target purified DHFR of strain Spn1/1 (Streptococcus pneumoniae serotype 4, UniProt Q54801, E20D/I100L/L135F/P70S/Q81H). In words: biochemical. The source says: Col. 3: DHFR Spn1/1; μM)—the IC50-values in μM against the purified DHFR of the above strain Spn1/1; of Streptococcus pneumoniae.

Sequence of purified DHFR of strain Spn1/1 (Q54801 whole entry E20D/P70S/Q81H/I100L/L135F): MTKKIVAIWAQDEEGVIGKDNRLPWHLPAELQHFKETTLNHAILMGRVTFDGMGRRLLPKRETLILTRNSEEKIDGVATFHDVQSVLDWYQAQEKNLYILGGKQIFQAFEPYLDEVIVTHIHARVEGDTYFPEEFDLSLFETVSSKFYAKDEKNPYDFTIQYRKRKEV

As to “6-(2,4-Diamino-pyrimidin-5-ylmethyl)-4-ethoxy-indole-1-sulfonic Acid dimethylamide [Example 2e]”, in assay [1], the “Spn 1/1 MIC” value came to 4 mg/L. Besides, the “Spn 49619 MIC” value in assay [2] came out at 0.06 mg/L. Besides, the pIC50 in assay [3] (purified DHFR of S. pneumoniae strain Spn1/1, read-out: Spn 1/1 IC50) is 6.96.
For the compound `CCn1cc(CN2CC(C)OC(C)C2)c2c(OS(=O)(=O)C(C)C)cc(Cc3cnc(N)nc3N)cc21` (mixture of isomers) [Example 10d, (cis/trans)-Propane-2-sulfonic acid 6-(2,4-diamino-pyrimidin-5-ylmethyl)-3-(2,6-dimethyl-morpholin-4-ylmethyl)-1-ethyl-1H-indol-4-yl ester], the MIC in assay [1] was 8 mg/L; in assay [2], 1 mg/L. Besides, the pIC50 in assay [3] was 6.60.
On the same counts, the results for `CCC(C)S(=O)(=O)Oc1cc(Cc2cnc(N)nc2N)cc2c1ccn2C` (racemic) [Example 5e, rac-Butane-2-sulfonic acid 6-(2,4-diamino-pyrimidin-5-ylmethyl)-1-methyl-1H-indol-4-yl ester] are 8 mg/L (≈ 20.5 µM), 0.125 mg/L (≈ 0.321 µM) and 7.89.
The corresponding values for `CCn1ccc2c(OCC3CCCO3)cc(Cc3cnc(N)nc3N)cc21` (racemic) [Example 7i, rac-5-[1-Ethyl-4-(tetrahydro-furan-2-ylmethoxy)-1H-indol-6-ylmethyl]-pyrimidine-2,4-diamine] are 8 mg/L (≈ 21.8 µM), 0.5 mg/L (≈ 1.36 µM) and 7.89.
On the same counts, the results for `CCC(C)S(=O)(=O)Oc1cc(Cc2cnc(N)nc2N)cc2c1ccn2CC` (racemic) [Example 8d, rac-Butane-2-sulfonic acid 6-(2,4-diamino-pyrimidin-5-ylmethyl)-1-ethyl-1H-indol-4-yl ester] are 1 mg/L (≈ 2.48 µM), 0.03 mg/L (≈ 0.0743 µM) and 8.74.
As for `CCC(C)S(=O)(=O)Oc1cc(Cc2cnc(N)nc2N)cc2c1cc(C)n2CC` (racemic) [Example 15c, rac-Butane-2-sulfonic acid 6-(2,4-diamino-pyrimidin-5-ylmethyl)-1-ethyl-2-methyl-1H-indol-4-yl ester], the MIC is 2 mg/L (≈ 4.79 µM) in assay [1] and 0.03 mg/L (≈ 0.0719 µM) in assay [2]. The pIC50 in assay [3] was 8.06.
With `CCOc1cc(Cc2cnc(N)nc2N)cc(OCC)c1-n1cccc1` [Epiroprim, reference compound], the MIC in assay [1] stood at 4 mg/L (≈ 11.3 µM); in assay [2] it was 0.125 mg/L (≈ 0.354 µM). In addition, the pIC50 in assay [3] is 6.72.
The corresponding values for `CCOc1cc(Cc2cnc(N)nc2N)cc2c1ccn2CC1CC1` [Example 2a, 5-(1-cyclopropylmethyl-4-ethoxy-1H-indol-6-ylmethyl)-pyrimidine-2,4-diamine] are greater than 8 mg/L, 0.5 mg/L (≈ 1.48 µM) and 6.96.
On the same counts, the results for `CCOc1cc(Cc2cnc(N)nc2N)cc2c1ccn2C1CCCC1` [Example 2b, 5-(1-Cyclopentyl-4-ethoxy-1H-indol-6-ylmethyl)-pyrimidine-2,4-diamine] are 8 mg/L (≈ 22.8 µM), 0.5 mg/L (≈ 1.42 µM) and 6.82.
As for `CCOc1cc(Cc2cnc(N)nc2N)cc2c1ccn2Cc1ccccc1` [Example 2c, 5-(1-Benzyl-4-ethoxy-1H-indol-6-ylmethyl)-pyrimidine-2,4-diamine], the results for the MIC in assay [1] and in assay [2] were greater than 8 mg/L and 2 mg/L (≈ 5.36 µM), respectively. In assay [3], this compound showed a pIC50 of 6.34.
The corresponding values for `CCOc1cc(Cc2cnc(N)nc2N)cc2c1ccn2S(=O)(=O)C(C)C` [Example 2d, 5-[4-Ethoxy-1-(propane-2-sulfonyl)-1H-indol-6-ylmethyl]-pyrimidine-2,4-diamine] are greater than 8 mg/L, 0.5 mg/L (≈ 1.28 µM) and 6.48.
On the same counts, the results for `CCOc1cc(Cc2cnc(N)nc2N)cc2c1ccn2CC` [Example 3, 5-(4-Ethoxy-1-ethyl-1H-indol-6-ylmethyl)-pyrimidine-2,4-diamine] are 4 mg/L (≈ 12.8 µM), 0.125 mg/L (≈ 0.401 µM) and 7.62.
On the same counts, the results for `Cn1ccc2c(OCC3CC3)cc(Cc3cnc(N)nc3N)cc21` [Example 5a, 5-(4-Cyclopropylmethoxy-1-methyl-1H-indol-6-ylmethyl)-pyrimidine-2,4-diamine] are 4 mg/L (≈ 12.4 µM), 0.25 mg/L (≈ 0.773 µM) and 6.96.
`CC(C)Oc1cc(Cc2cnc(N)nc2N)cc2c1ccn2C` [Example 5b, 5-(4-Isopropoxy-1-methyl-1H-indol-6-ylmethyl)-pyrimidine-2,4-diamine]: the values for the MIC in assay [1] and in assay [2] were greater than 8 mg/L and 0.5 mg/L (≈ 1.61 µM), respectively. Besides, the pIC50 in assay [3] is 6.77.
The corresponding values for `CC(C)S(=O)(=O)Oc1cc(Cc2cnc(N)nc2N)cc2c1ccn2C` [Example 5c, Propane-2-sulfonic acid 6-(2,4-diamino-pyrimidin-5-ylmethyl)-1-methyl-1H-indol-4-yl ester] are 4 mg/L (≈ 10.7 µM), 0.25 mg/L (≈ 0.666 µM) and 7.08.
The corresponding values for `CC(C)CS(=O)(=O)Oc1cc(Cc2cnc(N)nc2N)cc2c1ccn2C` [Example 5d, 2-Methyl-propane-1-sulfonic acid 6-(2,4-diamino-pyrimidin-5-ylmethyl)-1-methyl-1H-indol-4-yl ester] are 4 mg/L (≈ 10.3 µM), 0.125 mg/L (≈ 0.321 µM) and 7.44.
The corresponding values for `CCn1ccc2c(OCC3CC3)cc(Cc3cnc(N)nc3N)cc21` [Example 7a, 5-(4-Cyclopropylmethoxy-1-ethyl-1H-indol-6-ylmethyl)-pyrimidine-2,4-diamine] are 4 mg/L (≈ 11.9 µM), 0.125 mg/L (≈ 0.37 µM) and 7.68.
Turning to `CCn1ccc2c(OC)cc(Cc3cnc(N)nc3N)cc21` [Example 7b, 5-(1-Ethyl-4-methoxy-1H-indol-6-ylmethyl)-pyrimidine-2,4-diamine], the MIC in assay [1] was found to be 8 mg/L (≈ 26.9 µM); in assay [2], 0.5 mg/L (≈ 1.68 µM). In assay [3], the pIC50 is 6.39.
On the same counts, the results for `CCn1ccc2c(OC(C)C)cc(Cc3cnc(N)nc3N)cc21` [Example 7c, 5-(1-Ethyl-4-isopropoxy-1H-indol-6-ylmethyl)-pyrimidine-2,4-diamine] are 4 mg/L (≈ 12.3 µM), 0.25 mg/L (≈ 0.768 µM) and 6.85.
The corresponding values for `C#CCOc1cc(Cc2cnc(N)nc2N)cc2c1ccn2CC` [Example 7d, 5-(1-Ethyl-4-prop-2-ynyloxy-1H-indol-6-ylmethyl)-pyrimidine-2,4-diamine] are 8 mg/L (≈ 24.9 µM), 0.125 mg/L (≈ 0.389 µM) and 7.15.
On the same counts, the results for `CCn1ccc2c(OCC3OCCO3)cc(Cc3cnc(N)nc3N)cc21` [Example 7e, 5-[4-([1,3]Dioxolan-2-ylmethoxy)-1-ethyl-1H-indol-6-ylmethyl]-pyrimidine-2,4-diamine] are 8 mg/L (≈ 21.7 µM), 1 mg/L (≈ 2.71 µM) and 6.68.
With `CCn1ccc2c(OCC3CCC3)cc(Cc3cnc(N)nc3N)cc21` [Example 7f, 5-(4-Cyclobutylmethoxy-1-ethyl-1H-indol-6-ylmethyl)-pyrimidine-2,4-diamine], the MIC came to 2 mg/L (≈ 5.69 µM) in assay [1] and 0.5 mg/L (≈ 1.42 µM) in assay [2]. In assay [3], this compound gave a pIC50 of 7.39.
As for `CCn1ccc2c(OCC(C)C)cc(Cc3cnc(N)nc3N)cc21` [Example 7g, 5-(1-Ethyl-4-isobutoxy-1H-indol-6-ylmethyl)-pyrimidine-2,4-diamine], the MIC amounted to 2 mg/L (≈ 5.89 µM) in assay [1] and 0.5 mg/L (≈ 1.47 µM) in assay [2]. In assay [3], this compound had a pIC50 of 7.54.
Turning to `CCn1ccc2c(OCC3(C)CC3)cc(Cc3cnc(N)nc3N)cc21` [Example 7h, 5-[1-Ethyl-4-(1-methyl-cyclopropylmethoxy)-1H-indol-6-ylmethyl]-pyrimidine-2,4-diamine], the MIC stood at 4 mg/L (≈ 11.4 µM) in assay [1] and 1 mg/L (≈ 2.85 µM) in assay [2]. The pIC50 in assay [3] is 7.82.
Consider `CCn1ccc2c(OS(=O)(=O)C(C)C)cc(Cc3cnc(N)nc3N)cc21` [Example 8a, Propane-2-sulfonic acid 6-(2,4-diamino-pyrimidin-5-ylmethyl)-1-ethyl-1H-indol-4-yl ester], for which the values for the MIC in assay [1] and in assay [2] were 1 mg/L (≈ 2.57 µM) and 0.03 mg/L (≈ 0.077 µM), respectively. Further, the pIC50 in assay [3] was 7.55.
Regarding `CCn1ccc2c(OS(=O)(=O)CC3CC3)cc(Cc3cnc(N)nc3N)cc21` [Example 8b, Cyclopropyl-methanesulfonic acid 6-(2,4-diamino-pyrimidin-5-ylmethyl)-1-ethyl-1H-indol-4-yl ester], the MIC in assay [1] is 1 mg/L (≈ 2.49 µM); in assay [2], no more than 0.015 mg/L. Further, the pIC50 in assay [3] is 8.82.
On the same counts, the results for `CCn1ccc2c(OS(=O)(=O)CC(C)C)cc(Cc3cnc(N)nc3N)cc21` [Example 8c, 2-Methyl-propane-1-sulfonic acid 6-(2,4-diamino-pyrimidin-5-ylmethyl)-1-ethyl-1H-indol-4-yl ester] are 2 mg/L (≈ 4.96 µM), no more than 0.015 mg/L and 8.82.
Regarding `CCn1ccc2c(OS(=O)(=O)N(C)C)cc(Cc3cnc(N)nc3N)cc21` [Example 9, Dimethyl-sulfamic Acid 6-(2,4-diamino-pyrimidin-5-ylmethyl)-1-ethyl-1H-indol-4-yl ester], the MIC in assay [1] was determined as 2 mg/L (≈ 5.12 µM); in assay [2], 0.03 mg/L (≈ 0.0768 µM). In addition, the pIC50 in assay [3] was 7.54.
Regarding `COc1cc(Cc2cnc(N)nc2N)cc(OC)c1OC` [Trimethoprim, reference compound], the results for the MIC in assay [1] and in assay [2] were greater than 32 mg/L and 4 mg/L (≈ 13.8 µM), respectively.
